Experimental data published in patent publication US12678447B2, “Combinations of RIPK1- and IKK-inhibitors for the prevention or treatment of immune diseases” (Universität zu Köln, priority 2017, dated 2026).
“Also recorded” adds a separate entry of the source.

Test system: bone marrow derived macrophages (BMDMs)
Assay: LPS-induced IL-1β secretion in BMDMs treated with IKK2 inhibitors (ELISA)
Type: cell-based, mouse
Procedure: Bone marrow was isolated from the tibiae and femurs of one WT and one Ripk1^D138N/D138N mouse (6-7 week old). Bone marrow from one leg of each mouse was immediately frozen Bone marrow cells from the other leg were spun down at 1200 rpm, for 5 min and seeded in 15 cm^2 non-treated cell culture plates in 20 ml of medium containing 10 ng/ml M-CSF. Cells were allowed to differentiate for six days and subsequently adherent BMDMs were lifted, counted and seeded at a density of 2×10^5 cells/well in a 48 well plate. The day after, cells were pretreated with different concentrations of the IKK2 inhibitors for 30 min before stimulation with 100 ng/ml LPS in a total volume of 250 μl. Each experimental condition was assayed in triplicate. 20-24 h later supernatants were removed, cleared from floating cells and were frozen until cytokine measurements. IL-1β concentration was determined with a specific ELISA (eBioscience) following the manufacturer's instructions.
For the experiment with Nec1 the frozen bone marrow cells were used. After thawing, macrophages were differentiated as described above for fresh bone marrow cells. Necrostatin-1 (Nec-1) was added together with the IKK2 inhibitors during the 30 min pretreatment BMDMs were stimulated with LPS for 20-24 h and supernatants were kept for ELISA measurements. […]

Structure (SMILES) | amount of secreted IL-1β (LPS-induced, in BMDMs treated with IKK2 inhibitors) (Nec1 added together with IKK2 inhibitors during 30 min pretreatment, 100 ng/ml LPS for 20-24 h, FIG. 1B) | IL-1β secretion upon LPS stimulation (WT BMDMs pretreated 30 min with IKK2 inhibitor, then 100 ng/ml LPS for 20-24 h, IL-1β ELISA of supernatant)
CN1C(=O)C(Cc2c[nH]c3ccccc23)NC1=S (centres unmarked) [Necrostatin-1, 5-(1H-indo1-3-ylmethyl)-3-methyl-2-thioxo-4-imidazolidinone] | strongly diminished the LPS-induced production of IL-1β; also recorded: strongly reduced the amount of secreted IL-1β | 
NC(=O)Nc1sc(-c2ccc(F)cc2)cc1C(N)=O [TPCA-1] |  | greater potency
